# Assay results reported in PubChem BioAssay AID2060882 (Molecular Pharmacology Branch, DTP, NCI, 2025).
# Values joined by “and” are separate entries in the source; they are usually repeats but may differ in a detail not shown here. Equal values may be shown once.
# System: 898857-211-R-J1-PDC complex spheroids, growth % test/control
# Experiment: Anticancer human tumor 898857-211-R-J1-PDC patient-derived melanoma cell line growth inhibition [RAS]
# Details: for viability, T/C: stronger effect = lower value
# Excerpt: RAS pathway inhibitors in Combinations in Complex Spheroids
# A high-throughput screen of multi-cell type tumor spheroids was designed to identify active combinations of RAS pathway inhibitors and targeted small molecules. Complex spheroids include a stromal component modeled by human endothelial cells (HUVEC) and fibroblasts modeled by human mesenchymal stem cells (MSCs). The concentration ranges selected for each drug and investigational agent were based upon clinically achievable concentrations if the clinical Cmax of the agent was known.
# Compounds. The drugs and investigational agents: abemaciclib (NSC768073), cobimetinib (NSC768068), divarasib (GDC6063, NSC841802), docetaxel (NSC628503), GDC-1971 (RLY-1971, NSC841576), gemcitabine (NSC613327), inavolisib (NSC800729), ipatasertib (NSC767898), KB-0742 (NSC834161), MRTX-1133 (NSC836407), osimertinib (NSC779217), RMC-4630 (NSC839698), RMC-6236 (NSC851965), RMC-6291 (NSC852671), Ro-3306 (NSC812927), sapanisertib (NSC764658), SN-38 (NSC673596), staurosporine (NSC755774), SY5609 (NSC837396), and tovorafenib (DAY101, NSC766906), were obtained from the National Cancer Institute (NCI) Developmental Therapeutics Program Chemical Repository. The FDA-approved anticancer drug set is available from the NCI Developmental Therapeutics Program. […] The stock solutions were prepared in dimethyl sulfoxide (DMSO, Sigma-Aldrich, St. Louis, MO, cat. D2650) at 800-fold the tested concentration and stored at -70 degrees C prior to their use. All drugs and investigational agents were tested over a range starting from a high concentration at or near the clinical Cmax and decreasing in half-log increments. If the clinical Cmax for an agent had not been determined, the highest concentration tested was 10 microM.
# Cell Culture. All cells were maintained in an incubator at 37 degrees C and 5% CO2 with 95% humidity. The PDC lines were cultured according to standard operating procedures established by the NCI PDMR. All PDCs were thawed and cultured in Matrigel-coated flasks prepared with a working solution of 1X Ham's F-12 nutrient mix, without supplementation (Invitrogen, Waltham, MA, cat. 11765054), 100 U/mL penicillin-streptomycin (Invitrogen, cat. 15140122), and 2.5% Matrigel (Corning Inc., Corning, NY, cat. 354248) for the first three passages. The 362531-283-R-J2-PDC and 782815-120-R-J1-PDC lines were cultured in 6C/Colon 1B media, which includes advanced DMEM/F-12 (Thermo Fisher Scientific, cat. 12634028), 10 mM HEPES (Thermo Fisher Scientific, cat. 15630080), 1X GlutaMAX supplement (Thermo Fisher Scientific, cat. 35050061), 0.1 mg/mL primocin (InvivoGen, San Diego, CA, cat. ant-pm-2), 10% defined fetal bovine serum, heat inactivated (HyClone Laboratories Inc., Logan, UT, cat. SH30070.03HI), 50% L-WRN conditioned media (ATCC, cat. CRL-3276), 1.25 mM N-Acetyl-L-cysteine (Sigma-Aldrich, cat. A9165), 10 mM nicotinamide (Sigma-Aldrich, cat. N0636), 1X B-27 supplement (Thermo Fisher Scientific, cat. 17504044), 1X N-2 supplement (Thermo Fisher Scientific, cat. 17502048), 50 ng/mL human EGF (Thermo Fisher Scientific, cat. PHG0311), and 10 microM Y-27632 dihydrochloride (Tocris Bioscience, cat. 1254). The K12877-001-R-J1-PDC line was cultured in 6I media, which includes all 6C/Colon 1B media plus 10 ng/mL human FGF-10 (PeproTech, cat. 100-26), 1 ng/mL human FGF-2 (PeproTech, cat. 100-18B), 1 µM prostaglandin E2 (Tocris Bioscience, cat. 2296), […] hydrocortisone (Sigma-Aldrich, cat. H4001), and […] bovine insulin (Sigma-Aldrich, cat. I6634). The K86415-001-R-J1-PDC line was cultured in 6D media, which includes all 6C/Colon 1B media components minus the L-WRN conditioned media. The 485176-168-R4-J1-PDC was cultured in PANC media, which includes all 6C/Colon 1B media plus 100 ng/mL human FGF-10 (PeproTech, cat. 100-26), 500 nM SB-431542 (Selleckchem, cat. S1067), and 10 nM gastrin (Tocris Bioscience, cat. 3006). […]
# 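Note: spheroids exposed to compound for seven days before readout.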
# 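Throughout, for viability, T/C: 100% = DMSO vehicle control wells.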
structure (smiles),measurement,setting,value
C#Cc1c(F)ccc2cc(O)cc(-c3ncc4c(N5CC6CCC(C5)N6)nc(OCC56CCCN5CC(F)C6)nc4c3F)c12 (stereo not given),"viability, T/C",compound 0.0316 µM,105% [middle of 8 runs]
same,"viability, T/C",compound 0.1 µM,111% [middle of 8 runs]
same,"viability, T/C",compound 0.316 µM,108% [middle of 8 runs]
same,"viability, T/C",compound 1 µM,109% [middle of 8 runs]
same,"viability, T/C",compound 3.16 µM,103% [middle of 8 runs]
same,"viability, T/C",compound 10 µM,50.8% [middle of 8 runs]
C=CC(=O)N1CCN(c2nc(OCC3CCCN3C)nc3c(F)c(-c4nc(N)cc(C)c4C(F)(F)F)c(Cl)cc23)C(C)C1 (stereo not given),"viability, T/C","compound 0.00316 µM, compound 0.0316 µM",121%
same,"viability, T/C","compound 0.00316 µM, compound 0.1 µM",105%
same,"viability, T/C","compound 0.00316 µM, compound 0.316 µM",117%
same,"viability, T/C","compound 0.00316 µM, compound 1 µM",124%
same,"viability, T/C",compound 0.00316 µM,110% [middle of 11 runs]
same,"viability, T/C","compound 0.01 µM, compound 0.00316 µM",98.1%
same,"viability, T/C","compound 0.01 µM, compound 0.0316 µM",108%
same,"viability, T/C","compound 0.01 µM, compound 0.1 µM",112%
same,"viability, T/C","compound 0.01 µM, compound 0.316 µM",116%
same,"viability, T/C","compound 0.01 µM, compound 1 µM",127%
same,"viability, T/C",compound 0.01 µM,108% [middle of 12 runs]
same,"viability, T/C","compound 0.0316 µM, compound 0.00316 µM",102%
same,"viability, T/C","compound 0.0316 µM, compound 0.01 µM",108%
same,"viability, T/C","compound 0.0316 µM, compound 0.1 µM",103%
same,"viability, T/C","compound 0.0316 µM, compound 0.316 µM",115%
same,"viability, T/C","compound 0.0316 µM, compound 1 µM",122%
same,"viability, T/C",compound 0.0316 µM,112% [middle of 12 runs]
same,"viability, T/C","compound 0.1 µM, compound 0.00316 µM",109%
same,"viability, T/C","compound 0.1 µM, compound 0.01 µM",103%
same,"viability, T/C","compound 0.1 µM, compound 0.0316 µM",122%
same,"viability, T/C","compound 0.1 µM, compound 0.316 µM",118%
same,"viability, T/C","compound 0.1 µM, compound 1 µM",127%
same,"viability, T/C",compound 0.1 µM,114% [middle of 12 runs]
same,"viability, T/C","compound 0.316 µM, compound 0.00316 µM",125%
same,"viability, T/C","compound 0.316 µM, compound 0.01 µM",121%
same,"viability, T/C","compound 0.316 µM, compound 0.0316 µM",119%
same,"viability, T/C","compound 0.316 µM, compound 0.1 µM",125%
same,"viability, T/C","compound 0.316 µM, compound 1 µM",127%
same,"viability, T/C",compound 0.316 µM,115% [middle of 12 runs]
same,"viability, T/C","compound 1 µM, compound 0.00316 µM",115%
same,"viability, T/C","compound 1 µM, compound 0.01 µM",126%
same,"viability, T/C","compound 1 µM, compound 0.0316 µM",123%
same,"viability, T/C","compound 1 µM, compound 0.1 µM",112%
same,"viability, T/C","compound 1 µM, compound 0.316 µM",119%
same,"viability, T/C",compound 1 µM,116% [middle of 12 runs]
same,IC50,"compound alone, run of 09/09/2024",> 1000 nM
same,IC50,curve of compound,> 1000 nM
C=CC(=O)Nc1cc(Nc2nccc(-c3cn(C)c4ccccc34)n2)c(OC)cc1N(C)CCN(C)C,"viability, T/C",compound 0.00316 µM,113% and 103% (2×) and 128%
same,"viability, T/C",compound 0.01 µM,99.8% [middle of 4 runs]
same,"viability, T/C",compound 0.0316 µM,114% [middle of 4 runs]
same,"viability, T/C",compound 0.1 µM,102% [middle of 4 runs]
same,"viability, T/C",compound 0.316 µM,92.8% [middle of 4 runs]
same,"viability, T/C",compound 1 µM,54.5% [middle of 4 runs]
same,IC50,curve of compound,970 nM and > 1000 nM and 799 nM
